These results are taken from ChEMBL document CHEMBL5058647, “Data for DCP probe JNJ-9350” (2022).

“And” between values parts separate entries of the source, which are not always exact repeats. Equal values may be shown once. The source made the active and inactive calls. No cut-off for these calls is given here.

In one test the target is D(4) dopamine receptor (Homo sapiens, UniProt P21917). Put plainly: GPCRScan assay: inhibition of D4. Also noted: radioligand conc. used [nm] 0.6 – 1.7, parental cells Stable HEK.
For test [1], the target named is T1, Spermine oxidase (Homo sapiens, UniProt Q9NWM0). Put plainly: HyPerBlu SMOX enzymatic assay.
For test [2], the target named is Alpha-1B adrenergic receptor (Homo sapiens, UniProt P35368). Put plainly: GPCRScan assay: inhibition of Alpha1B. Also noted: radioligand conc. used [nm] 0.3 – 1.0, parental cells stable HEK.
The target in test [3] is GABA-A receptor; anion channel (Rattus norvegicus) (UniProt O09028+P15431+P18506+P18508+P19969+P20236+P23574+P23576+P28471+P28473+P30191+P62813+P63079+P63138+Q91ZM7+Q9ES14). The note with it: Compound concentration 10.0 uM.
For test [4], the target named is Alpha-2C adrenergic receptor (Homo sapiens) (UniProt P18825). To be noted: Compound concentration 10.0 uM.
Test [5] addresses Sodium-dependent dopamine transporter (Homo sapiens, UniProt Q01959). Put plainly: GPCRScan assay: inhibition of DAT. Also noted: radioligand conc. used [nm] 3.6 – 16.0, parental cells stable HEK.
In test [6] the target is 5-hydroxytryptamine receptor 6 (Homo sapiens) (UniProt P50406). The note with it: Compound concentration 10.0 uM.
Test [7] concerns the target Sodium-dependent serotonin transporter (Homo sapiens) (UniProt P31645). To be noted: Compound concentration 10.0 uM.
The target in test [8] is Muscarinic acetylcholine receptor M4 (Homo sapiens, UniProt P08173). Put plainly: GPCRScan assay: inhibition of M4. Also noted: radioligand conc. used [nm] 0.3 – 1.0, parental cells stable CHO.
The next test addresses D(3) dopamine receptor (Homo sapiens, UniProt P35462). Put plainly: GPCRScan assay: inhibition of D3. Also noted: radioligand conc. used [nm] 0.5 – 1.8, parental cells HEKT.
Test [9] deals with T2, Sigma intracellular receptor 2 (Homo sapiens, UniProt Q5BJF2). To be noted: Compound concentration 10.0 uM.
The target of test [10] is T3, 5-hydroxytryptamine receptor 1B (Homo sapiens, UniProt P28222). Put plainly: GPCRScan assay: inhibition of 5-HT1B. Also noted: radioligand conc. used [nm] 0.6 – 1.5, parental cells stable HEK.
The target in test [11] is Cholecystokinin receptor type A (Homo sapiens) (UniProt P32238). Put plainly: CCK1 (CCKA) (h) CEREP ligand profiling. The note with it: filed as agonist, Compound concentration 10.0 uM.
For another test, the species on record is Homo sapiens. Put plainly: sigma (non-selective) (h) CEREP ligand profiling. The note with it: filed as agonist, Compound concentration 10.0 uM.
Test [12] has as its target Adenosine receptor A1 (Homo sapiens) (UniProt P30542). Put plainly: A1 (h) CEREP ligand profiling. The note with it: filed as antagonist, Compound concentration 10.0 uM.
The target of test [13] is Melatonin receptor type 1A (Homo sapiens) (UniProt P48039). Put plainly: MT1 (ML1A) (h) CEREP ligand profiling. To be noted: filed as agonist, Compound concentration 10.0 uM.
The target of test [14] is 5-hydroxytryptamine receptor 2A (Homo sapiens) (UniProt P28223). Put plainly: 5-HT2A (h) CEREP ligand profiling. To be noted: filed as agonist, Compound concentration 10.0 uM.
The target in test [15] is 5-hydroxytryptamine receptor 1D (Homo sapiens, UniProt P28221). Put plainly: GPCRScan assay: inhibition of 5-HT1D. Also noted: radioligand conc. used [nm] 1.0 – 2.0, parental cells HEKT.
Test [16] has as its target Lysine-specific histone demethylase 1A (Homo sapiens, UniProt O60341). Put plainly: HyPerBlu KDM1A enzymatic assay.
The target of test [17] is T1, Spermine oxidase. Put plainly: SMOX CETSA assay.
Test [18] has as its target Alpha-2A adrenergic receptor (Homo sapiens, UniProt P08913). Put plainly: GPCRScan assay: inhibition of Alpha2A. Also noted: radioligand conc. used [nm] 1.0 – 3.0, parental cells stable MDCK.
The target of test [19] is Adenosine receptor A3 (Homo sapiens) (UniProt P0DMS8). Put plainly: A3 (h) CEREP ligand profiling. The note with it: filed as agonist, Compound concentration 10.0 uM.
The target in test [20] is Kappa-type opioid receptor (Homo sapiens, UniProt P41145). Put plainly: kappa (h) (KOP) CEREP ligand profiling. To be noted: filed as agonist, Compound concentration 10.0 uM.
Test [21] addresses Adenosine receptor A2a (Homo sapiens) (UniProt P29274). Put plainly: A2A (h CEREP ligand profiling. To be noted: filed as agonist, Compound concentration 10.0 uM.
Test [22] concerns the target T4, 5-hydroxytryptamine receptor 2B (Homo sapiens, UniProt P41595). Put plainly: 5-HT2B (h) CEREP ligand profiling. The note with it: filed as agonist, Compound concentration 10.0 uM.
Test [23] has as its target T5, Muscarinic acetylcholine receptor M4 (Homo sapiens) (UniProt P08173).
T5 sequence (whole entry): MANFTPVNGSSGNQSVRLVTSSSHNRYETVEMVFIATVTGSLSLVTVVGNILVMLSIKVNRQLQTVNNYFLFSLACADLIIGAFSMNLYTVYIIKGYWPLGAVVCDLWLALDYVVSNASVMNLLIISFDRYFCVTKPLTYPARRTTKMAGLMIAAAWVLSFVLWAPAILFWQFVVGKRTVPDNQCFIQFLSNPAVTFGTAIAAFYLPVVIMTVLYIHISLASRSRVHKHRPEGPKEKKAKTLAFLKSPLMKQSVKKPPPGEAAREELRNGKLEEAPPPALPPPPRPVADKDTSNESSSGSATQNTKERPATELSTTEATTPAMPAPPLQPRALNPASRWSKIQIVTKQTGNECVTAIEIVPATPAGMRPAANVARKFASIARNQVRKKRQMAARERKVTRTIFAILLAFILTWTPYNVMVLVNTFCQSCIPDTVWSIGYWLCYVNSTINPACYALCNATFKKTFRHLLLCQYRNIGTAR
Put plainly: M4 (h) CEREP ligand profiling. The note with it: filed as antagonist, Compound concentration 10.0 uM.

The target in test [24] is T1, Spermine oxidase. Put plainly: Horseradish Peroxidase (HRP) Fluorescence Assay.
In test [25] the target is Substance-K receptor (Homo sapiens) (UniProt P21452). Put plainly: NK2 (h) CEREP ligand profiling. The note with it: filed as agonist, Compound concentration 10.0 uM.
For test [26], the target named is Alpha-2B adrenergic receptor (Homo sapiens, UniProt P18089). Put plainly: GPCRScan assay: inhibition of Alpha2B. Also noted: radioligand conc. used [nm] 1.5 – 2.0, parental cells HEKT.
The target in test [27] is T4, 5-hydroxytryptamine receptor 2B. Put plainly: GPCRScan assay: inhibition of 5-HT2B. Also noted: radioligand conc. used [nm] 1.0 – 2.0, parental cells stable HEK.
The target of test [28] is T2, Sigma intracellular receptor 2. Put plainly: GPCRScan assay: inhibition of Sigma 2. Also noted: radioligand conc. used [nm] 5.0, parental cells HEKT.
The target of test [29] is 3',5'-cyclic-AMP phosphodiesterase 4D (Homo sapiens) (UniProt Q08499). Put plainly: PDE4D2 (h) CEREP ligand profiling. To be noted: Compound concentration 10.0 uM.
Test [30] addresses T3, 5-hydroxytryptamine receptor 1B. Put plainly: 5-HT1B (h) CEREP ligand profiling. To be noted: filed as antagonist, Compound concentration 10.0 uM.

T1 sequence (Q9NWM0 whole entry): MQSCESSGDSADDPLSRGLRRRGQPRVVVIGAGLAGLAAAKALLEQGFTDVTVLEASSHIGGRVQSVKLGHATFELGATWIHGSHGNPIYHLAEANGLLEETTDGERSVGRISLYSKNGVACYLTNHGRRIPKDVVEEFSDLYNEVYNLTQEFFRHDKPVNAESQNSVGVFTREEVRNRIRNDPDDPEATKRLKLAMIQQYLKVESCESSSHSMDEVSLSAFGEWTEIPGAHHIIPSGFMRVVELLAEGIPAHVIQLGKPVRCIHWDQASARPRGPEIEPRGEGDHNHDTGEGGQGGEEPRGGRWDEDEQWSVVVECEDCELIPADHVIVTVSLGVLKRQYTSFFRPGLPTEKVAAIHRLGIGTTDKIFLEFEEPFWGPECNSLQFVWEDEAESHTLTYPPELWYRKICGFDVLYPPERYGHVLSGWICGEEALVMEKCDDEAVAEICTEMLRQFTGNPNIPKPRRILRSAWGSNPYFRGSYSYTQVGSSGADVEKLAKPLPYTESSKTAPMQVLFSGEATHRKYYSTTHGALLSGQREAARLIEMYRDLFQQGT
T2 sequence (Q5BJF2 whole entry): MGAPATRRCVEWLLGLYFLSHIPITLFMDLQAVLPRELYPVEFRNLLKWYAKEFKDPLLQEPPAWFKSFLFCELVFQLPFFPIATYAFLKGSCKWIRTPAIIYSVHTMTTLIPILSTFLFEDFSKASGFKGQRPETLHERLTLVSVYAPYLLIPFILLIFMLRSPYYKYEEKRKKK
T3 sequence (P28222 whole entry): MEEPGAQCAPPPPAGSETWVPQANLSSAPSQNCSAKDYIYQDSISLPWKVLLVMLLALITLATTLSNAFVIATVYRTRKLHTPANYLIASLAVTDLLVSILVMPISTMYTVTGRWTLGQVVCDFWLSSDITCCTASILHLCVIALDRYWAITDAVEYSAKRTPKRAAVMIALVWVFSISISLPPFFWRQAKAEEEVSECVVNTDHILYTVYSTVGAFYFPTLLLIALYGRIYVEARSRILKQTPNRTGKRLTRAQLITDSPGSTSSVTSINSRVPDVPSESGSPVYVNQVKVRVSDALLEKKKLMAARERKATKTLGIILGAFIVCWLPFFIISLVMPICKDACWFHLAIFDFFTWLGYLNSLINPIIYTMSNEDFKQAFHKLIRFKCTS
5-hydroxytryptamine receptor 1D, sequence (P28221 whole entry): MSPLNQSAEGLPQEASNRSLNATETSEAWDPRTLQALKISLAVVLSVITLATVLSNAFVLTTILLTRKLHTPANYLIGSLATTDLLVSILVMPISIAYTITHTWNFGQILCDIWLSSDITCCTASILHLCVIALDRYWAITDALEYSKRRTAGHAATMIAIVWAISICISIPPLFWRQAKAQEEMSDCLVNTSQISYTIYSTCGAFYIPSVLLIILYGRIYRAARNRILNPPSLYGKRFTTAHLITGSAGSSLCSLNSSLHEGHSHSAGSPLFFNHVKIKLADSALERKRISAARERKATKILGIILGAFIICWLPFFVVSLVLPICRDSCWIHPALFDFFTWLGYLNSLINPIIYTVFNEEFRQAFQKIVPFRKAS
Alpha-2C adrenergic receptor (Homo sapiens), sequence (P18825 whole entry): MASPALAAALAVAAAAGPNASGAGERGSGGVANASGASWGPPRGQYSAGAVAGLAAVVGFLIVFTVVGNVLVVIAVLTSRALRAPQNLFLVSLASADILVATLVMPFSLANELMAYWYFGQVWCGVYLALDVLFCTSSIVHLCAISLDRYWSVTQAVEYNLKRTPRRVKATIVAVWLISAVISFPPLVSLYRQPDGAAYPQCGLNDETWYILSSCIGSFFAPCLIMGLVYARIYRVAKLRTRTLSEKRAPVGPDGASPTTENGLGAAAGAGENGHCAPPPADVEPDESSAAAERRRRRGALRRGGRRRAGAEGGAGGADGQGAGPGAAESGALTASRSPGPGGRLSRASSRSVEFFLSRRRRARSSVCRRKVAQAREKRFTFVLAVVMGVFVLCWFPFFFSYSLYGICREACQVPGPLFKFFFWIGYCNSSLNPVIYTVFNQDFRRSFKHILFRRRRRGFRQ
Sodium-dependent serotonin transporter (Homo sapiens), sequence (P31645 whole entry, looked up): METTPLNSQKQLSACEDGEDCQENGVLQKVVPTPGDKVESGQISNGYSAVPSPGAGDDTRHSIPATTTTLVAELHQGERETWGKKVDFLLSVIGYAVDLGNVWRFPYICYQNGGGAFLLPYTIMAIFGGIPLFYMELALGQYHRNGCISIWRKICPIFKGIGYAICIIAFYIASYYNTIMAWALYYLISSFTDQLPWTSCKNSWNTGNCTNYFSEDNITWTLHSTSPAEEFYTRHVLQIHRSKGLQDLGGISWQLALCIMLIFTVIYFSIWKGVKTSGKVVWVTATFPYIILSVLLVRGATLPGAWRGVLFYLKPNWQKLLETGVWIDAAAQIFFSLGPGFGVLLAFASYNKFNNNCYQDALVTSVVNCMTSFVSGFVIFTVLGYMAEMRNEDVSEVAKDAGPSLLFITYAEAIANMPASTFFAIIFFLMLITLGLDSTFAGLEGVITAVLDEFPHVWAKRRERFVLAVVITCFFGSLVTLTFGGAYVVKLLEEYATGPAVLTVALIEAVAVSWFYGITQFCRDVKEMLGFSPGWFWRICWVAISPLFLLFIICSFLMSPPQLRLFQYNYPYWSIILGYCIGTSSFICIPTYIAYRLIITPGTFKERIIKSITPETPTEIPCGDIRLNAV
T4 sequence (P41595 whole entry): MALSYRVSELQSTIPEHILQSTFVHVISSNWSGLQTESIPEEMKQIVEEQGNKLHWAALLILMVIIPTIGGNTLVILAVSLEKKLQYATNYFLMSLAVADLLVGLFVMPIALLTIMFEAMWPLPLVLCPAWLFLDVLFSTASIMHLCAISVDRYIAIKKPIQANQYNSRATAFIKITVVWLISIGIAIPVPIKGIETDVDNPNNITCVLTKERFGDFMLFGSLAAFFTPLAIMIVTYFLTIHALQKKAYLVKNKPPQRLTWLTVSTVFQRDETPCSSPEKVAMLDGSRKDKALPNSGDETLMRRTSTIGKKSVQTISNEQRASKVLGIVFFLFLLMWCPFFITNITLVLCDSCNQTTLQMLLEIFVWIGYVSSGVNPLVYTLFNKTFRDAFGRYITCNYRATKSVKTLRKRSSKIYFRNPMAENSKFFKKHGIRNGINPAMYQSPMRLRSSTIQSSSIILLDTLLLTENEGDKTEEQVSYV
Sodium-dependent dopamine transporter, sequence (Q01959 whole entry): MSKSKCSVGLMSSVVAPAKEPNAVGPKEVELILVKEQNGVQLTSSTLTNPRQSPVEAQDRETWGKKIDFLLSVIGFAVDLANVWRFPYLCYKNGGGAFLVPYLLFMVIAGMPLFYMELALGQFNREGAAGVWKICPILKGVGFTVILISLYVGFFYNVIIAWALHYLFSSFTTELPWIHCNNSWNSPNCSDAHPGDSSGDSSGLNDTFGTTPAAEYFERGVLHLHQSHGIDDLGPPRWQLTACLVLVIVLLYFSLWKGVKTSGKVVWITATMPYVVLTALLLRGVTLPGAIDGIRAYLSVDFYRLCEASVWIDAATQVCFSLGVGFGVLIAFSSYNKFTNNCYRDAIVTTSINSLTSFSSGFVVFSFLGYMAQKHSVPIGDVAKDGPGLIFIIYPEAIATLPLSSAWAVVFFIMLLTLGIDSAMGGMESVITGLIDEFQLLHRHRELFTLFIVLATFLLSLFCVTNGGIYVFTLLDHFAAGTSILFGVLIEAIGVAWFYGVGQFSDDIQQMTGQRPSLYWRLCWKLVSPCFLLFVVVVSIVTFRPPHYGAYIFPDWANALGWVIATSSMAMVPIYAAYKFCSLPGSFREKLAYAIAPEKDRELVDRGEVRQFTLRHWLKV
Alpha-1B adrenergic receptor, sequence (P35368 whole entry): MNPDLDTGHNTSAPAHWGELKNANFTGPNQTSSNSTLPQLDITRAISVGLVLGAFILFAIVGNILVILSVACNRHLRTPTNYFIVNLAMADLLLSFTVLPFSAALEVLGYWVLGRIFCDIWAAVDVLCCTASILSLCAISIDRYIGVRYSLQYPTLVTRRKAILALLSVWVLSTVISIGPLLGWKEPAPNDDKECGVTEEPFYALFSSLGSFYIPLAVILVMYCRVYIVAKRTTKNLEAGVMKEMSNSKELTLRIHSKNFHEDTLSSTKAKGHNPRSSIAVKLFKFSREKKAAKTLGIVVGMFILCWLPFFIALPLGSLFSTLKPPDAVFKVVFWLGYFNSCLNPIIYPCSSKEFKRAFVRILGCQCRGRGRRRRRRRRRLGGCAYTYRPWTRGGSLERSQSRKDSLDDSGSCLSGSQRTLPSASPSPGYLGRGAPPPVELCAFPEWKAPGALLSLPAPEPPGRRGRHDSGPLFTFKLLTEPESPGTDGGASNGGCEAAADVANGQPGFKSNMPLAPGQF
Melatonin receptor type 1A (Homo sapiens), sequence (P48039 whole entry): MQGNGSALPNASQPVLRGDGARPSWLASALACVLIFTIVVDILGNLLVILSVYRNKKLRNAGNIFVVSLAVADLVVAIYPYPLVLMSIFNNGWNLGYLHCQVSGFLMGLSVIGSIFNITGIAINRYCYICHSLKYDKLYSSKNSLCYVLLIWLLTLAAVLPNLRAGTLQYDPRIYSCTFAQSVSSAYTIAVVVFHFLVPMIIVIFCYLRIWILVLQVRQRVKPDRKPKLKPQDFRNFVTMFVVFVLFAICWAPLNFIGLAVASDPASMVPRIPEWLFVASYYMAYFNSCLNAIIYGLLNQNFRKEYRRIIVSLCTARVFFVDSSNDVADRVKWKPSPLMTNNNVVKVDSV
D(3) dopamine receptor, sequence (P35462 whole entry): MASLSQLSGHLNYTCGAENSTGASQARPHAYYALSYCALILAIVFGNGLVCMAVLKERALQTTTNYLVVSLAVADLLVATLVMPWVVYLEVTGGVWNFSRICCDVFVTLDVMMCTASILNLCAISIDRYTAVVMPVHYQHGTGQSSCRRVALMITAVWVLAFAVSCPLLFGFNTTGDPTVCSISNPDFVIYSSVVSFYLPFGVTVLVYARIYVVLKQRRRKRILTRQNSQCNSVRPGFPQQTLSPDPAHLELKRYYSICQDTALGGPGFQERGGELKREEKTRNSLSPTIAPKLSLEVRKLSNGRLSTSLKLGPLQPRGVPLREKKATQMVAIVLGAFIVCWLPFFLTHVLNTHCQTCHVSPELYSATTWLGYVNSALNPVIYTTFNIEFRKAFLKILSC

Usually IC50 stands for the concentration that gives 50% inhibition. In general, inhibition refers to the relative decrease from the control value, in per cent. As for `CC(=O)Nc1ccc(-c2cc(-c3ccccc3)nc3cc(C(=O)NCCCn4ccnc4)nn23)cc1`, the Ki on D(4) dopamine receptor is 3390 nM; in test [2], 9780 nM; in test [5] (read-out: Ki), 6550 nM; in test [5] (read-out: pKi (converted)), 6610 nM; in [8], 1310 nM; at D(3) dopamine receptor, 3600 nM. Moreover, the half-maximal inhibitory concentration (IC50) on Spermine oxidase [1] was > 31000 nM (not active). For the same compound, the inhibition was 25.9% in test [3]; -1.48% in test [4]; -8.97% in test [6]; 12.9% in test [7]; 25.4% in [9].
With `O=C(NCCCn1ccnc1)c1cc2nc(-c3ccccc3)cc(-c3ccccc3)n2n1`, the Ki is 478 nM in test [10] (read-out: Ki); 407 nM in test [10] (read-out: pKi (converted)); 318 nM and 219 nM in test [15] (read-out: Ki); 195 nM in [15] (read-out: pKi (converted)); 3830 nM in test [18]; 9.9 nM (active) at Spermine oxidase [24]. The results for the Ki in test [26], in [27] and in test [28] were 3580 nM, 897 nM and 1920 nM, respectively. Besides, the inhibition was 70.3% in test [11]; 62.8% in the test listed under Homo sapiens; 98.9% in [12]; 58.8% in test [13]; 69.9% in [14]; 20.1% in test [4]. The inhibition in [19] is 75.1%; in [7] it was 16.6%; in test [20] it was 74.1%; in [21], 75%; in [22], 68.5%; in [23] it was 59.8%. For the same compound, the inhibition was 76.7% in test [9], 56.8% in test [25], 63% in [29] and 62.1% in test [30]. Besides, the IC50 in test [16] was > 60000 nM (not active); on Spermine oxidase [17] it was 1200 nM (active).
